What all share (format): functional, cell-based
Test [1] can be described thus: Cytotoxicity against human H116 cells.
The next test concerns A549. The experiment in a line: Cytotoxicity against human A549 cells.
A further test deals with HT-29. The experiment in a line: Cytotoxicity against human HT-29 cells.

In brackets after ≈: the same amount, converted by molar mass.

For the molecule `COC(=O)CC[C@@H]1C(=C(C)C)CC[C@H]2[C@@]1(C)CC[C@H](C)[C@]2(C)Cc1cc(O)cc(C)c1O`, the half-maximal inhibitory concentration (IC50) was 2.5 µg/mL (≈ 5.65 µM) in test [1], 2.5 µg/mL (≈ 5.65 µM) in the test with A549 and less than 2.5 µg/mL in the test with HT-29.

These data come from ChEMBL document CHEMBL1150146, “New terpenoids from the brown alga Stypopodium zonale” (J Nat Prod, 2002).
